pKd: −log10 of the molar value.
Molecular target: T1, RAB1A (Human Rab1a Recombinant protein) (Homo sapiens, UniProt P62820)
T1 construct: commercial recombinant protein (Shanghai Chunmai Biotechnology); RED-NHS labelled
Test: microscale thermophoresis
Assay type: binding
Conditions: RED-NHS labelled protein; room temperature; C118P 0.61 pM to 20 µM

T1 sequence (P62820 2-205): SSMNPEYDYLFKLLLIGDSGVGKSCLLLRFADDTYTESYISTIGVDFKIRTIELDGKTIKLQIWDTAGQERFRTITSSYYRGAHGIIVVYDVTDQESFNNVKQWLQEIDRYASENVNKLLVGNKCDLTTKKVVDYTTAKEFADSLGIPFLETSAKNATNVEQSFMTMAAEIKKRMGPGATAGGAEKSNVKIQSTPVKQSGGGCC

For COc1cc(OC)cc(-c2nc[nH]c2-c2ccc(OC)c(OP(=O)(O)O)c2)c1 [C118P], the pKd was 8.50.

Source: paper PMC11678531, “C118P Suppresses Gastric Cancer Growth via Promoting Autophagy–Lysosomal Degradation of RAB1A” (Pharmaceutics, 2024)
